Measured values published in patent US12667572B2, “Tricyclic compounds useful in the treatment of cancer, autoimmune and inflammatory disorders” (SCHRÖDINGER, INC., priority 2021, dated 2026).

Molecular target: T1, full-length MALT1 protein His-MALT1(1-824) (Homo sapiens, UniProt Q9UDY8)
T1 construct: full-length MALT1 protein His-MALT1(1-824); His (N); made in house; host or cells: baculovirus-infected insect cells
T1 sequence (Q9UDY8 1-824): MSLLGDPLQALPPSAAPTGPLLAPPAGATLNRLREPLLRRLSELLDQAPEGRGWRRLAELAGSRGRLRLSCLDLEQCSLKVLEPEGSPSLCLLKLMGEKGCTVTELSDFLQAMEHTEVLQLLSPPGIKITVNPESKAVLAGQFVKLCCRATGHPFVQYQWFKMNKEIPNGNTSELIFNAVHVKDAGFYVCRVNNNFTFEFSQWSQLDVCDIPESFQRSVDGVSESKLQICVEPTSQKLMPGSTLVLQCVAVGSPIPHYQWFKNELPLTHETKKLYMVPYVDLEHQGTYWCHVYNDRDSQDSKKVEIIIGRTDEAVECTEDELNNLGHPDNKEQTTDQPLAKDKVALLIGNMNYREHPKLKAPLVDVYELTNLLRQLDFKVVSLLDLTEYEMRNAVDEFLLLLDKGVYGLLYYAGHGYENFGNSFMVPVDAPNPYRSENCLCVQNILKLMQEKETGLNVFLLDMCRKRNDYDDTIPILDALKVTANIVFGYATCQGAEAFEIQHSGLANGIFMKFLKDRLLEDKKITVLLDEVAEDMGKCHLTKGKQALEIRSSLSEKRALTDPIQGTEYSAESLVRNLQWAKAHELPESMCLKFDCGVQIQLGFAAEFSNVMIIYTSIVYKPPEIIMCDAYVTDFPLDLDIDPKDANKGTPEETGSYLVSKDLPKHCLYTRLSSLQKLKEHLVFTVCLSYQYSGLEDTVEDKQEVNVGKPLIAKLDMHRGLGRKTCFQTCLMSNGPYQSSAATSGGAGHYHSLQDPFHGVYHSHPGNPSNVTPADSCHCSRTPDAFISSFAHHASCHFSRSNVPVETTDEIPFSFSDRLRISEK
Test: MALT1 protease assay, Assay 2 (1 nM MALT1, Ac-LRSR-AMC substrate)
Assay type: biochemical
Conditions: 1 nM MALT1, 50 μM Ac-LRSR-AMC, 2 h pre-incubation, 8 hr incubation at RT
Protocol: MALT1 protease activity was assessed in an in vitro assay using a tetrapeptide as substrate and full-length MALT1 protein His-MALT1(1-824) purified from baculovirus-infected insect cells. The tetrapeptide substrate is Ac-LRSR-AMC (SM Biochemicals) with Km measured at around 100 μM.
The final assay buffer includes 1 nM (Assay 2) or 2 nM (Assay 1) of MALT1 full-length protein, 50 μM Ac-LRSR-AMC substrate, 50 mM Tris pH 7.5, 600 mM Sodium Citrate, 1 mM DTT, 1 mM EDTA, and 0.05% BSA in 384-well plate format using black microtiter square well plates (Optiplate 384-F, Perkin Elmer).
Test compounds were dissolved in 100% DMSO at stock of 10 mM, with final DMSO concentration 0.1%. Test compounds were pre-incubated with MALT1 protein for 2 h at room temperature. Substrate was added after the pre-incubation and fluorescence signal was measured using Envision at excitation 355 nm and emission 460 nm after 8 hr incubation at RT. Increase in the assay signal was linear over this period and proportional with increase in the enzyme content.
The fluorescence units were transformed to percentage of remaining activity by using the high control (HC, median of fluorescence signal from wells containing MALT1 protein, substrate, and DMSO) and low control (LC, median of fluorescence signal from wells with substrate only) with the formula below: […]
IC50 and Hill coefficients were obtained using Graph Pad Prism (Graph Pad software, Inc, USA) with non-linear regression analysis.

| IC50 [nM] | SMILES |
| --- | --- |
| 10 to 100 | O=C(Nc1cnc(-n2nccn2)c(C(F)(F)F)c1)[C@H]1C[C@]2(CCO2)c2c1cnc1cc(Cl)nn21 (racemic) [Example 117, (cis)-N-(6-(2H-1,2,3-triazol-2-yl)-5˜(trifluoromethyl)pyridin-3-yl)-2-chloro-6,7-dihydrospiro[cyclopenta[e]pyrazolo[1,5-a]pyrimidine-8,2′-oxetane]-6-carboxamide] |
| ≥ 1000 | CC1(C)C[C@@H](C(=O)Nc2cnc(-n3nccn3)c(C(F)(F)F)c2)c2cnc3cc(Cl)nn3c21 (single isomer, unassigned) [Example 45, N-(6-(2H-1,2,3-triazol-2-yl)-5˜(trifluoromethyl)pyridin-3-yl)-2-chloro-8,8-dimethyl-7,8-dihydro-6H-cyclopenta[e]pyrazolo[1,5-a]pyrimidine-6-carboxamide] |
| ≥ 1000 | C[C@H](O)c1cnn(-c2ncc(NC(=O)[C@@H]3CC(C)(C)c4c3cnc3cc(Cl)nn43)cc2Cl)n1 (single isomer, unassigned) [Example 50, 2-chloro-N-(5-chloro-6-(4-(1-hydroxyethyl)-2H-1,2,3-triazol-2-yl)pyridin-3-yl)-8,8-dimethyl-7,8-dihydro-6H-cyclopenta[e]pyrazolo[1,5-a]pyrimidine-6-carboxamide] |
| 10 to 100 | C[C@]1(C(F)(F)F)C[C@@H](C(=O)Nc2cnc(-n3nccn3)c(C(F)(F)F)c2)c2cnc3cc(Cl)nn3c21 (single isomer, unassigned) [Example 55, N-(6-(2H-1,2,3-triazol-2-yl)-5˜(trifluoromethyl)pyridin-3-yl)-2-chloro-8-methyl-8-(trifluoromethyl)-7,8-dihydro-6H-cyclopenta[e]pyrazolo[1,5-a]pyrimidine-6-carboxamide] |
| 10 to 100 | CC1(C)C[C@H](C(=O)Nc2cc(C(F)F)c(-c3ncco3)c(=O)[nH]2)c2cnc3cc(Cl)nn3c21 (single isomer, unassigned) [Example 58, 2-chloro-N-(4-(difluoromethyl)-5˜(oxazol-2-yl)-6-oxo-1,6-dihydropyridin-2-yl)-8,8-dimethyl-7,8-dihydro-6H-cyclopenta[e]pyrazolo[1,5-a]pyrimidine-6-carboxamide] |
| 100 to 1000 | C[C@]1(C(F)(F)F)C[C@@H](C(=O)Nc2cnc(-n3nccn3)c(C(F)F)c2)c2cnc3cc(Cl)nn3c21 (single isomer, unassigned) [Example 63, 2-chloro-N-(5-(difluoromethyl)-6-(2H-1,2,3-triazol-2-yl)pyridin-3-yl)-8-methyl-8-(trifluoromethyl)-7,8-dihydro-6H-cyclopenta[e]pyrazolo[1,5-a]pyrimidine-6-carboxamide] |
| 100 to 1000 | CC1(C)CC(C(=O)Nc2cnc(OC(F)F)c(Cl)c2)c2cnc3cc(Cl)nn3c21 (single isomer, unassigned) [Example 67, 2-chloro-N-(5-chloro-6-(difluoromethoxy)pyridin-3-yl)-8,8-dimethyl-7,8-dihydro-6H-cyclopenta[e]pyrazolo[1,5-a]pyrimidine-6-carboxamide] |
| ≥ 1000 | CN(C(=O)c1ncc(NC(=O)[C@@H]2CC(C)(C)c3c2cnc2cc(Cl)nn32)cc1C(F)F)C1CC1 (single isomer, unassigned) [Example 72, 2-chloro-N-(6-(cyclopropyl(methyl)carbamoyl)-5-(difluoromethyl)pyridin-3-yl)-8,8-dimethyl-7,8-dihydro-6H-cyclopenta[e]pyrazolo[1,5-a]pyrimidine-6-carboxamide] |
| ≥ 1000 | CC1(C)CC(C(=O)Nc2cnc(OC3CC3)c(Cl)c2)c2cnc3cc(Cl)nn3c21 (single isomer, unassigned) [Example 74, 2-chloro-N-(5-chloro-6-cyclopropoxypyridin-3-yl)-8,8-dimethyl-7,8-dihydro-6H-cyclopenta[e]pyrazolo[1,5-a]pyrimidine-6-carboxamide] |
| 100 to 1000 | CC1(C)CC(C(=O)Nc2cnc(OC(F)F)c(C#N)c2)c2cnc3cc(Cl)nn3c21 (single isomer, unassigned) [Example 78, 2-chloro-N-(5-cyano-6-(difluoromethoxy)pyridin-3-yl)-8,8-dimethyl-7,8-dihydro-6H-cyclopenta[e]pyrazolo[1,5-a]pyrimidine-6-carboxamide] |

Second part, the compound before the results:

| SMILES | IC50 [nM] |
| --- | --- |
| O=C(Nc1cnc(-n2nccn2)c(C(F)(F)F)c1)[C@H]1C[C@@]2(CCO2)c2c1cnc1cc(Cl)nn21 (racemic) [Example 116, (trans)-N-(6-(2H-1,2,3-triazol-2-yl)-5˜(trifluoromethyl)pyridin-3-yl)-2-chloro-6,7-dihydrospiro[cyclopenta[e]pyrazolo[1,5-a]pyrimidine-8,2′-oxetane]-6-carboxamide] | 100 to 1000 |
| CC1(C)C[C@@H](C(=O)Nc2cnc(-n3nccn3)c(C(F)F)c2)c2cnc3cc(Cl)nn3c21 (single isomer, unassigned) [Example 46, 2-chloro-N-(5-(difluoromethyl)-6-(2H-1,2,3-triazol-2-yl)pyridin-3-yl)-8,8-dimethyl-7,8-dihydro-6H-cyclopenta[e]pyrazolo[1,5-a]pyrimidine-6-carboxamide] | ≥ 1000 |
| C[C@@H](O)c1cnn(-c2ncc(NC(=O)[C@@H]3CC(C)(C)c4c3cnc3cc(Cl)nn43)cc2Cl)n1 (single isomer, unassigned) [Example 52, 2-chloro-N-(5-chloro-6-(4-(1-hydroxyethyl)-2H-1,2,3-triazol-2-yl)pyridin-3-yl)-8,8-dimethyl-7,8-dihydro-6H-cyclopenta[e]pyrazolo[1,5-a]pyrimidine-6-carboxamide] | 100 to 1000 |
| C[C@@]1(C(F)(F)F)C[C@@H](C(=O)Nc2cnc(-n3nccn3)c(C(F)(F)F)c2)c2cnc3cc(Cl)nn3c21 (single isomer, unassigned) [Example 53, N-(6-(2H-1,2,3-triazol-2-yl)-5˜(trifluoromethyl)pyridin-3-yl)-2-chloro-8-methyl-8-(trifluoromethyl)-7,8-dihydro-6H-cyclopenta[e]pyrazolo[1,5-a]pyrimidine-6-carboxamide] | 100 to 1000 |
| CC1(C)C[C@@H](C(=O)Nc2cc(C(F)F)c(-c3ncco3)c(=O)[nH]2)c2cnc3cc(Cl)nn3c21 (single isomer, unassigned) [Example 57, 2-chloro-N-(4-(difluoromethyl)-5˜(oxazol-2-yl)-6-oxo-1,6-dihydropyridin-2-yl)-8,8-dimethyl-7,8-dihydro-6H-cyclopenta[e]pyrazolo[1,5-a]pyrimidine-6-carboxamide] | 100 to 1000 |
| C[C@@]1(C(F)(F)F)C[C@@H](C(=O)Nc2cnc(-n3nccn3)c(C(F)F)c2)c2cnc3cc(Cl)nn3c21 (single isomer, unassigned) [Example 65, 2-chloro-N-(5-(difluoromethyl)-6-(2H-1,2,3-triazol-2-yl)pyridin-3-yl)-8-methyl-8-(trifluoromethyl)-7,8-dihydro-6H-cyclopenta[e]pyrazolo[1,5-a]pyrimidine-6-carboxamide] | 100 to 1000 |
| CC1(C)OC(C(=O)Nc2cnc(-n3nccn3)c(Cl)c2)c2cnc3cc(Cl)nn3c21 (single isomer, unassigned) [Example 70, 2-chloro-N-(5-chloro-6-(2H-1,2,3-triazol-2-yl)pyridin-3-yl)-8,8-dimethyl-6,8-dihydrofuro[3,4-e]pyrazolo[1,5-a]pyrimidine-6-carboxamide] | ≥ 1000 |
| CC1(C)O[C@H](C(=O)Nc2cnc(-n3nccn3)c(Cl)c2)c2cnc3cc(Cl)nn3c21 (single isomer, unassigned) [Example 71, 2-chloro-N-(5-chloro-6-(2H-1,2,3-triazol-2-yl)pyridin-3-yl)-8,8-dimethyl-6,8-dihydrofuro[3,4-e]pyrazolo[1,5-a]pyrimidine-6-carboxamide] | 100 to 1000 |
| CC1(C)CC(C(=O)Nc2cnc(OC(F)F)c(Cl)c2)c2cnc3cc(F)nn3c21 (single isomer, unassigned) [Example 76, N-(5-chloro-6-(difluoromethoxy)pyridin-3-yl)-2-fluoro-8,8-dimethyl-7,8-dihydro-6H-cyclopenta[e]pyrazolo[1,5-a]pyrimidine-6-carboxamide] | ≥ 1000 |
